14 compounds from PubChem BioAssay (NCI) can be followed below.

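Dose response: 5 concentrations. Exposure: 48 h. Format: 96-well plates. Endpoint: linear interpolation; highest concentration if not reached. The concentration for full growth arrest is given as TGI.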

Test in all cases: NCI anticancer screen, dose series, 48 h
Experiment [1] concerns MALME-3M melanoma.
The test system of experiment [2] is HS 578T breast.
The subject of experiment [3] is K-562 leukemia.
The test system of experiment [4] is SF-539 CNS.
Experiment [5] concerns SW-620 colon.
Experiment [6] deals with NCI-H460 lung.
Experiment [7] deals with SK-MEL-2 melanoma.
Experiment [8] concerns HCT-116 colon.
The subject of experiment [9] is LOX IMVI melanoma.
Experiment [10] deals with HOP-62 NSCLC.

Regarding `O=C1N2CCC[C@H]2CS1(=O)=O`, the TGI in experiment [1] was 28.3 µM; in experiment [2], above 100 µM; in experiment [3] it was 32.1 µM; in experiment [4], above 100 µM; in experiment [5], 42.1 µM; in experiment [6], 88.1 µM. The TGI in experiment [7] was 34.4 µM; in experiment [8] it was 28.1 µM; in [9], 27.3 µM; in [10], 32 µM.

For the compound `CC(c1ccccc1)n1cncc1C(=O)NN1CCN(C)CC1` (stereo not given), the TGI in [1], in [2], in experiment [3], in experiment [4], in experiment [5] and in experiment [6] was above 10 µM each time. Moreover, the TGI in experiment [7], in experiment [8], in experiment [9] and in experiment [10] was above 10 µM in each case.

Regarding `CCOC(=O)CCc1cn2cc(Br)nc(OC)c2n1`, the TGI in experiment [1], in experiment [2], in experiment [3], in [4], in [5] and in experiment [6] was above 100 µM each time. In addition, the TGI in experiment [7], in experiment [8], in experiment [9] and in experiment [10] was above 100 µM each time.

For the compound `N/N=C(/N)SCCCCCCCCCCS/C(N)=N/N`, the TGI in experiment [1] is 49.4 µM; in experiment [2] it was above 100 µM; in experiment [3] it was 32.3 µM; in experiment [4], above 100 µM; in [5], 36.6 µM; in [6], 32.7 µM. Further, the TGI was 52.8 µM in experiment [7], above 100 µM in [8], 23.7 µM in experiment [9] and above 100 µM in [10].

With `Cc1ccc(N=C/C=C(\Nc2ccc(C)cc2)c2ccc3ccccc3c2)cc1`, the TGI stood at 14 µM in experiment [1]; 36.8 µM in experiment [2]; 2.72 µM in experiment [3]; 3.45 µM in [4]; 24.9 µM in experiment [5]; 13.8 µM in experiment [6]. Also, the TGI in [7] was determined as 11.2 µM; in experiment [8], 2.99 µM; in experiment [9], 1.91 µM; in [10] it was 5.4 µM.

`c1cc2cc3c4c5c(cc6ccc7cc8cc9c%10c8c8c7c6c5c8c5c%10c(c1C9N1CCOCCOCCOCCOCCOCC1)c2c45)C3` (stereo not given): the TGI in [1], in [2], in [3], in [4], in experiment [5] and in experiment [6] was above 100 µM in each case. Moreover, the TGI in experiment [7], in experiment [8], in [9] and in [10] was above 100 µM throughout.

In the case of `Clc1ccc(-c2nn3c(COc4cccc(OCc5nnc6sc(-c7ccc(Cl)cc7)nn56)c4)nnc3s2)cc1`, the TGI in experiment [1] was 50.4 µM; in experiment [2], above 100 µM; in experiment [3], above 100 µM; in experiment [4] it was 49.5 µM; in [5], above 100 µM; in experiment [6], above 100 µM. The TGI is above 100 µM in experiment [7], 44.7 µM in [8], above 100 µM in [9] and above 100 µM in experiment [10].

For `C=C(CN(CC)CC)C1(c2ccccc2)CC2(CCCC2)C(=O)O1` (stereo not given), the TGI in experiment [1], in experiment [2], in experiment [3], in [4], in experiment [5] and in [6] was above 100 µM in each case. The TGI in [7], in experiment [8], in [9] and in [10] was above 100 µM in each case.

Turning to `O=C1C=CC2(O[C@H](C3CCCCC3)[C@@H](C3CCCCC3)O2)C(SC(=O)c2ccccc2)C1` (stereo not given in full), the TGI in experiment [1] was 10.5 µM; in [2], 10.9 µM; in experiment [3] it was 4.73 µM; in experiment [4], 11.6 µM; in experiment [5], 16.8 µM; in experiment [6] it was 17.6 µM. The TGI in experiment [7] was found to be 12.8 µM; in experiment [8], 1.75 µM; in experiment [9], 5.92 µM; in [10], 9.57 µM.

`O=S(=O)(/N=S(/Nc1ccccc1)C(F)(F)Cl)c1ccccc1` (stereo not given): the TGI in experiment [1], in experiment [2], in [3], in experiment [4], in [5] and in experiment [6] was above 100 µM in each case. Also, the TGI in experiment [7], in [8], in [9] and in experiment [10] was above 100 µM in each case.

`Cc1cc(N2CCCCC2)nc2ccc(Cc3ccc4nc(N5CCCCC5)cc(C)c4c3)cc12`: the TGI in experiment [1], in [2], in experiment [3], in experiment [4], in [5] and in experiment [6] was above 100 µM each time. The TGI in [7], in [8], in [9] and in experiment [10] was above 100 µM each time.

For `O=c1[nH]n(CCc2ccccc2CCl)c2ccc([N+](=O)[O-])cc12`, the TGI in experiment [1], in experiment [2], in experiment [3], in experiment [4], in experiment [5] and in experiment [6] was above 100 µM throughout. The TGI in experiment [7], in [8], in experiment [9] and in experiment [10] was above 100 µM each time.

Take `CCOc1ccc2nc3nc(=O)[nH]c(C)c3c(NC(C)(CO)CO)c2c1`: the TGI in [1], in experiment [2], in [3], in experiment [4], in [5] and in experiment [6] was above 100 µM each time. The TGI in experiment [7], in experiment [8], in experiment [9] and in experiment [10] was above 100 µM each time.

In the case of `Oc1ccc(Cl)cc1-c1cc(-c2ccccc2)nc(=S)[nH]1`, the TGI in experiment [1], in experiment [2], in experiment [3], in experiment [4], in [5] and in experiment [6] was above 100 µM each time. Further, the TGI in experiment [7] is 78.2 µM; in experiment [8], above 100 µM; in experiment [9], above 100 µM; in experiment [10], 46.9 µM.
